Measured values taken from patent US20040209914A1, “Aromatic sulfone hydroxamic acids and their use as protease inhibitors” (priority 2000, published 2004).
Where two headings read alike, the source gives them in different places.

Experiments:
Experiment in all cases: biochemical
Recombinant human MMP-1 = target: T1, Recombinant human MMP-1 (Homo sapiens, UniProt P03956); conditions: fluorogenic MCA-peptide substrate, pH 7.5, room temperature
T1 construct: made in house; host or cells: transfected HT-1080 cells
T1 sequence (P03956 100-469): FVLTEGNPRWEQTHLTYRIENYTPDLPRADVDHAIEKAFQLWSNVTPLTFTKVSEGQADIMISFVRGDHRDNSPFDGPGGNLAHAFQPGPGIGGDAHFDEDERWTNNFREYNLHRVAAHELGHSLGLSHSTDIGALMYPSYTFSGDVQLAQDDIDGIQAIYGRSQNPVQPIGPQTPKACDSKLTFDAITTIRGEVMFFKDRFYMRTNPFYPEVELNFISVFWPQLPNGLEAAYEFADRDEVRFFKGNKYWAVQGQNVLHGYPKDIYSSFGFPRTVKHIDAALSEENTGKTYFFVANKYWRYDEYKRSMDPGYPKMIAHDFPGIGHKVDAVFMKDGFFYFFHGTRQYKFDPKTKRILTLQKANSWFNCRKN
Experimental: Recombinant human MMP-1, MMP-2, MMP-9, MMP-13, and were used in this assay. These enzymes were prepared in the Assignee's es following usual laboratory procedures. Specifics for preparing and e enzymes can be found in the scientific literature describing these See, e.g., Enzyme Nomenclature (Academic Press, San Diego, Calif., d the citations therein).
The MMP-1 was obtained from MMP-1 expressing transfected HT-1080 cells provided by Dr. Harold Welgus of Washington University in St. Louis, Mo. The MMP-1 was activated using 4-aminophenylmercuric acetate (APMA), and then purified over a hydroxamic acid column.
The enzyme substrate was a methoxycoumarin-containing polypeptide having the following sequence:
MCA-ProLeuGlyLeuDpaAlaArgNH2
Here, “MCA” is methoxycoumarin and “Dpa” is 3-(2,4-dinitrophenyl)-L-2,3-diaminopropionyl alanine.
These solutions were then compared to a control (which contained equal amount of DMSO/buffer solution, but no hydroxamate compound) using Microfluor™ White Plates (Dynatech, Chantilly, Va.). Specifically, The MMPs were activated with APMA or trypsin. […] The control likewise was incubated at room temperature in separate plates with the MMP and 4 uM of the MMP substrate. […] Inhibition was measured as a reduction in fluorescent intensity as a function of inhibitor concentration using a Perkin Elmer (Norwalk, Conn.) L550 plate reader. The IC50's were then calculated from these measurements.

Recombinant human MMP-2 = target: T2, Recombinant human MMP-2 (Homo sapiens, UniProt P08253); conditions: fluorogenic MCA-peptide substrate, pH 7.5, room temperature
T2 construct: made in house
T2 sequence (P08253 110-660): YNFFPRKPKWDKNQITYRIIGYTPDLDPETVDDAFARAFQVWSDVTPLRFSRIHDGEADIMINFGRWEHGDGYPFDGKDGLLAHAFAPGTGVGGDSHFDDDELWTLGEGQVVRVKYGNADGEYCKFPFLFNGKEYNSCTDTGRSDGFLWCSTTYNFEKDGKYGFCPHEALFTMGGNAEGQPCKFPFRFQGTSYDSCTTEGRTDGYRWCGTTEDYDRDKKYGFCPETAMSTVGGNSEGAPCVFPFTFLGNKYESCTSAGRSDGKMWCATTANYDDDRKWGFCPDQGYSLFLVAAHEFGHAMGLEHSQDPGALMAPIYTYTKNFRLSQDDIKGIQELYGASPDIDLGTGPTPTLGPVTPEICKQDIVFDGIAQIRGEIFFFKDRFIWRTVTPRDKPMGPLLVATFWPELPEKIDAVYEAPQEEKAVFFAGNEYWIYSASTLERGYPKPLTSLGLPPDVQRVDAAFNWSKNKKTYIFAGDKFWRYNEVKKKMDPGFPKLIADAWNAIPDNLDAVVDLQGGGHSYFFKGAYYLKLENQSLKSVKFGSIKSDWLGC
How it was run: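 Activated (APMA or trypsin) recombinant human MMP-2, from transfected expressing cells, incubated at room temperature with 4 uM fluorogenic substrate MCA-Pro-Leu-Gly-Leu-Dpa-Ala-Arg-NH2 and hydroxamate inhibitor.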

Recombinant human MMP-13 = target: T3, Recombinant human MMP-13 (Homo sapiens, UniProt P45452); conditions: fluorogenic MCA-peptide substrate, pH 7.5, room temperature; read-out: MMP-13 IC50
T3 construct: made in house; host or cells: baculovirus / insect cells
How it was run: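 APMA-activated MMP (proenzyme purified on heparin agarose and chelating zinc columns) incubated at room temperature with 4 uM fluorogenic MCA-ProLeuGlyLeuDpaAlaArgNH2 substrate. Inhibition read as reduced fluorescence versus inhibitor concentration relative to a DMSO control, giving IC50.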

SMILES	IC50 (Recombinant human MMP-1) [nM]	IC50 (Recombinant human MMP-2; MMP-2 IC50(nM)) [nM]	IC50 (Recombinant human MMP-13) [nM]	IC50 (Recombinant human MMP-2; read-out: MMP-2 IC50) [nM]
CC(=O)N1CCN(C(=O)C2CCN(c3ccc(S(=O)(=O)C4(C(=O)NO)CCOCC4)cc3)CC2)CC1 [Example 8]	> 10000	2500	50	–
C#CCN1CCC(C(=O)NO)(S(=O)(=O)c2ccc(N3CCC(C(=O)c4ccc(N(C)CC)cc4)CC3)cc2)CC1 [Example 174]	> 10000	–	1.1	1070
C=CCN1CCC(C(=O)NO)(S(=O)(=O)c2ccc(N3CCC(C(=O)c4ccc(Cl)cc4)CC3)cc2)CC1 [Example 180]	> 10000	–	0.3	52.7
CCN1CCC(C(=O)NO)(S(=O)(=O)c2ccc(N3CCC(C(=O)c4ccc(C)cc4)CC3)cc2)CC1 [Example 208]	> 10000	–	0.1	19.6
CCN1CCC(C(=O)NO)(S(=O)(=O)c2ccc(N3CCC(C(=O)c4ccc(CC5CCC5)cc4)CC3)cc2)CC1 [Example 195]	> 10000	–	0.3	463
O=C(c1ccc(CC2CCC2)cc1)C1CCN(c2ccc(S(=O)(=O)C3(C(=O)NO)CCN(C4CC4)CC3)cc2)CC1 [Example 196]	> 10000	–	1	750
O=C(c1ccc(CCC2CCCC2)cc1)C1CCN(c2ccc(S(=O)(=O)C3(C(=O)NO)CCOCC3)cc2)CC1 [Example 381]	> 10000	–	3.5	640
COCCN1CCC(C(=O)NO)(S(=O)(=O)c2ccc(N3CCC(C(=O)c4ccc(CC(C)CO)cc4)CC3)cc2)CC1 (stereo not drawn) [Example 231]	> 10000	–	0.5	39.4
O=C(c1ccc(Cl)cc1)C1CCN(c2ccc(S(=O)(=O)C3(C(=O)NO)CCN(C4CC4)CC3)cc2)CC1 [Example 213]	> 10000	–	0.5	25.8
CCN1CCC(C(=O)NO)(S(=O)(=O)c2ccc(N3CCC(C(=O)c4ccc(Cl)c(C)c4)CC3)cc2)CC1 [Example 221]	> 10000	–	3.4	301
Cc1cc(C(=O)C2CCN(c3ccc(S(=O)(=O)C4(C(=O)NO)CCN(C5CC5)CC4)cc3)CC2)ccc1Cl [Example 214]	> 10000	–	1.7	160
COCCN1CCC(C(=O)NO)(S(=O)(=O)c2ccc(N3CCC(C(=O)c4ccc(CCCC(C)C)cc4)CC3)cc2)CC1 [Example 226]	> 10000	–	< 0.1	1020
Cc1ccc(C(=O)C2CCN(c3ccc(S(=O)(=O)C4(C(=O)NO)CCN(S(C)(=O)=O)CC4)cc3)CC2)cc1 [Example 207]	> 10000	–	1.1	4.4
C#CCN1CCC(C(=O)NO)(S(=O)(=O)c2ccc(N3CCC(C(=O)c4cccc(C)c4)CC3)cc2)CC1 [Example 154]	> 10000	–	2.4	176
CCC(C)Cc1ccc(C(=O)C2CCN(c3ccc(S(=O)(=O)C4(C(=O)NO)CCN(C5CC5)CC4)cc3)CC2)cc1 (stereo not drawn) [Example 200]	> 10000	–	0.5	1400
O=C(c1ccc(CC2CCCCC2)cc1)C1CCN(c2ccc(S(=O)(=O)C3(C(=O)NO)CCOCC3)cc2)CC1 [Example 380]	> 10000	–	9.7	2290
COCCN1CCC(C(=O)NO)(S(=O)(=O)c2ccc(N3CCC(C(=O)c4ccc(CCC5CCCC5)cc4)CC3)cc2)CC1 [Example 204]	> 10000	–	0.2	1050
O=C(c1ccco1)N1CCN(C(=O)C2CCN(c3ccc(S(=O)(=O)C4(C(=O)NO)CCOCC4)cc3)CC2)CC1 [Example 13]	> 10000	–	31.6	3500

SMILES	IC50 (Recombinant human MMP-1) [nM]	IC50 (Recombinant human MMP-2; MMP-2 IC50(nM)) [nM]	IC50 (Recombinant human MMP-13) [nM]	IC50 (Recombinant human MMP-2; read-out: MMP-2 IC50) [nM]
C=CCN1CCC(C(=O)NO)(S(=O)(=O)c2ccc(N3CCC(C(=O)c4ccc(N(C)CC)cc4)CC3)cc2)CC1 [Example 181]	> 10000	–	2.3	936
CCN1CCC(C(=O)NO)(S(=O)(=O)c2ccc(N3CCC(C(=O)c4ccc(CC5CCC5)cc4)CC3)cc2)CC1 [Example 232]	> 10000	–	1.3	624
O=C(c1ccc(CC2CCCC2)cc1)C1CCN(c2ccc(S(=O)(=O)C3(C(=O)NO)CCOCC3)cc2)CC1 [Example 379]	> 10000	–	0.6	1270
CCN1CCC(C(=O)NO)(S(=O)(=O)c2ccc(N3CCC(C(=O)c4ccc(CCC(C)C)c(F)c4)CC3)cc2)CC1 [Example 249]	> 10000	–	5.8	> 10000
CCOC(=O)CN1CCN(C(=O)C2CCN(c3ccc(S(=O)(=O)C4(C(=O)NO)CCOCC4)cc3)CC2)CC1 [Example 11]	> 10000	–	37	2700
COCCN1CCC(C(=O)NO)(S(=O)(=O)c2ccc(N3CCC(C(=O)c4ccc(OC(C)C)c(C)c4)CC3)cc2)CC1 [Example 191]	> 10000	–	3	2290
COc1ccccc1N1CCN(C(=O)C2CCN(c3ccc(S(=O)(=O)C4(C(=O)NO)CCOCC4)cc3)CC2)CC1 [Example 7]	> 10000	–	18	4500
CC(C)N1CCN(C(=O)C2CCN(c3ccc(S(=O)(=O)C4(C(=O)NO)CCOCC4)cc3)CC2)CC1 [Example 15]	> 10000	–	28	5500
O=C(C1CCN(c2ccc(S(=O)(=O)C3(C(=O)NO)CCOCC3)cc2)CC1)N1CCN(C2CCCC2)CC1 [Example 14]	> 10000	–	45	> 10000
CCN1CCC(C(=O)NO)(S(=O)(=O)c2ccc(N3CCC(C(=O)c4ccc(OC)cc4)CC3)cc2)CC1 [Example 194]	> 10000	–	9.1	1230
COCCN1CCC(C(=O)NO)(S(=O)(=O)c2ccc(N3CCC(C(=O)c4ccc(CC5CCCCC5)cc4)CC3)cc2)CC1 [Example 203]	2370	–	0.6	816
CCC(C)Cc1ccc(C(=O)C2CCN(c3ccc(S(=O)(=O)C4(C(=O)NO)CCOCC4)cc3)CC2)cc1 (stereo not drawn) [Example 382]	> 10000	–	0.3	1310
C=CCN1CCC(C(=O)NO)(S(=O)(=O)c2ccc(N3CCC(C(=O)c4ccc(C)c(C)c4)CC3)cc2)CC1 [Example 158]	> 10000	–	2.4	218
COCCN1CCC(C(=O)NO)(S(=O)(=O)c2ccc(N3CCC(C(=O)c4ccc(COCC(C)C)s4)CC3)cc2)CC1 [Example 243]	> 10000	–	0.3	56
O=C(C1CCN(c2ccc(S(=O)(=O)C3(C(=O)NO)CCOCC3)cc2)CC1)N1CCN(c2ccc([N+](=O)[O-])cc2)CC1 [Example 25]	> 10000	–	4	445
COc1ccc(C(=O)C2CCN(c3ccc(S(=O)(=O)C4(C(=O)NO)CCOCC4)cc3)CC2)cc1C [Example 305]	> 10000	–	6	3300
CCC(CC)Cc1ccc(C(=O)C2CCN(c3ccc(S(=O)(=O)C4(C(=O)NO)CCN(CCOC)CC4)cc3)CC2)cc1 [Example 230]	> 10000	–	0.1	745
